Experimental data taken from PMC12860872, “Preclinical evaluation of DOTAGA.Glu.(FAPI)2 and DO3A.Glu.(FAPI)2 as theranostics with human dosimetry extrapolation to lutetium-177 and terbium-161 analogs” (European Journal of Nuclear Medicine and Molecular Imaging, 2025).

Columns and labels:
[1] = cited from earlier work
[2] = tested on: PC3-mice; test: Biodistribution in PC3-mice incl. blocking; assay type: in vivo, mouse; conditions: PC3-mice
Protocol: Male athymic Balb/C nude mice (6 weeks/20–25 g) were implanted with PC3 cells (3.5 × 10^6/100 µL PBS) into their right shoulder to develop tumors. The animals were used for biodistribution and PET/SPECT/CT imaging studies, once tumors reached 250–300 mm^3.
All mice were euthanized with intraperitoneal injection of pentobarbital (150 mg/kg), and selected organs were dissected, weighed, and measured for radioactivity using a gamma-counter. Results are expressed as % injected activity per gram tissue (% I.A./g), presented as mean ± SD (n = 3–4).

[3] = Blocking 4h (20 nmol unlabeled precursor)

Question: Which results are given for `N#C[C@@H]1CC(F)(F)CN1C(=O)CNC(=O)c1ccnc2ccc(OCCCCNC(=O)CC[C@H](NC(=O)CCC(C(=O)O)N3CCN(CC(=O)[O-])CCN(CC(=O)[O-])CCN(CC(=O)[O-])CC3)C(=O)NCCCCOc3ccc4nccc(C(=O)NCC(=O)N5CC(F)(F)C[C@H]5C#N)c4c3)cc12.[177Lu+3]` (stereo partly drawn) [[^177Lu]Lu-DOTAGA.Glu.(FAPI)2]?
Answer: absorbed dose left colon ([1]; human dosimetry, mean): 0.31 ± 0.12 Gy/GBq; absorbed dose right colon ([1]; human dosimetry, mean): 0.22 ± 0.09 Gy/GBq; biological half-life in bone metastases ([1]; human studies): 19.5 ± 7.3 h; biological half-life in soft tissue metastases ([1]; human studies): 22.1 ± 6.7 h; Uptake in Adrenal ([2]; 4 h p.i.): 3±0.2 %I.A./g; Uptake in Blood ([2]; 4 h p.i.): 2.1±0.1 %I.A./g; Uptake in Bone ([2]; 4 h p.i.): 4±0.3 %I.A./g; Uptake in Gallbladder ([2]; 4 h p.i.): 2.7±1.6 %I.A./g; Uptake in Heart ([2]; 4 h p.i.): 0.9±0.1 %I.A./g; Uptake in Intestine ([2]; 4 h p.i.): 0.8±0.3 %I.A./g; Uptake in Kidney ([2]; 4 h p.i.): 2.6±0.4 %I.A./g; Uptake in Liver ([2]; 4 h p.i.): 1.7±0.2 %I.A./g; Uptake in Lung ([2]; 4 h p.i.): 1.1±0.1 %I.A./g; Uptake in Muscle ([2]; 4 h p.i.): 1.4±0.3 %I.A./g; Uptake in Pancreas ([2]; 4 h p.i.): 1.9±0.1 %I.A./g; Uptake in Salivary glands ([2]; 4 h p.i.): 6.2±1.2 %I.A./g; Uptake in Spleen ([2]; 4 h p.i.): 0.9±0.1 %I.A./g; Uptake in Stomach ([2]; 4 h p.i.): 0.8±0.1 %I.A./g; Uptake in Tumor ([2]; 4 h p.i.): 16.2±2.5 %I.A./g; Uptake in Adrenal ([2]; 24 h p.i.): 1.9±0.2 %I.A./g; Uptake in Blood ([2]; 24 h p.i.): 0.9±0.2 %I.A./g; Uptake in Bone ([2]; 24 h p.i.): 2.5±0.1 %I.A./g; Uptake in Gallbladder ([2]; 24 h p.i.): 0.4±0.1 %I.A./g; Uptake in Heart ([2]; 24 h p.i.): 0.6±0.1 %I.A./g; Uptake in Intestine ([2]; 24 h p.i.): 0.4±0.1 %I.A./g; Uptake in Kidney ([2]; 24 h p.i.): 1.3±0.2 %I.A./g; Uptake in Liver ([2]; 24 h p.i.): 2.1±0.2 %I.A./g; Uptake in Lung ([2]; 24 h p.i.): 0.6±0.2 %I.A./g; Uptake in Muscle ([2]; 24 h p.i.): 0.8±0.1 %I.A./g; Uptake in Pancreas ([2]; 24 h p.i.): 0.9±0.7 %I.A./g; Uptake in Salivary glands ([2]; 24 h p.i.): 2.9±0.5 %I.A./g; Uptake in Spleen ([2]; 24 h p.i.): 0.7±0.2 %I.A./g; Uptake in Stomach ([2]; 24 h p.i.): 0.4±0.1 %I.A./g; Uptake in Tumor ([2]; 24 h p.i.): 7.3±0.6 %I.A./g; Uptake in Adrenal ([2]; 48 h p.i.): 1.3±0.3 %I.A./g; Uptake in Blood ([2]; 48 h p.i.): 0.2±0.03 %I.A./g; Uptake in Bone ([2]; 48 h p.i.): 1.3±0.1 %I.A./g; Uptake in Gallbladder ([2]; 48 h p.i.): 0.1±0.1 %I.A./g; Uptake in Heart ([2]; 48 h p.i.): 0.4±0.04 %I.A./g; Uptake in Intestine ([2]; 48 h p.i.): 0.2±0.01 %I.A./g; Uptake in Kidney ([2]; 48 h p.i.): 1±0.2 %I.A./g; Uptake in Liver ([2]; 48 h p.i.): 1.9±0.5 %I.A./g; Uptake in Lung ([2]; 48 h p.i.): 0.3±0.1 %I.A./g; Uptake in Muscle ([2]; 48 h p.i.): 0.5±0.1 %I.A./g; Uptake in Pancreas ([2]; 48 h p.i.): 0.6±0.1 %I.A./g; Uptake in Salivary glands ([2]; 48 h p.i.): 2.2±0.3 %I.A./g; Uptake in Spleen ([2]; 48 h p.i.): 0.5±0.04 %I.A./g; Uptake in Stomach ([2]; 48 h p.i.): 0.3±0.03 %I.A./g; Uptake in Tumor ([2]; 48 h p.i.): 5.1 ± 0.1 %I.A./g; Uptake in Adrenal ([2]; 72 h p.i.): 0.9±0.02 %I.A./g; Uptake in Blood ([2]; 72 h p.i.): 0.1±0.03 %I.A./g; Uptake in Bone ([2]; 72 h p.i.): 0.9±0.2 %I.A./g; Uptake in Gallbladder ([2]; 72 h p.i.): 0.1±0.1 %I.A./g; Uptake in Heart ([2]; 72 h p.i.): 0.3±0.1 %I.A./g; Uptake in Intestine ([2]; 72 h p.i.): 0.1±0.02 %I.A./g; Uptake in Kidney ([2]; 72 h p.i.): 0.6±0.1 %I.A./g; Uptake in Liver ([2]; 72 h p.i.): 1.4±0.4 %I.A./g; Uptake in Lung ([2]; 72 h p.i.): 0.1±0.02 %I.A./g; Uptake in Muscle ([2]; 72 h p.i.): 0.2±0.02 %I.A./g; Uptake in Pancreas ([2]; 72 h p.i.): 0.4±0.03 %I.A./g; Uptake in Salivary glands ([2]; 72 h p.i.): 0.7±0.04 %I.A./g; Uptake in Spleen ([2]; 72 h p.i.): 0.3±0.1 %I.A./g; Uptake in Stomach ([2]; 72 h p.i.): 0.1±0.02 %I.A./g; Uptake in Tumor ([2]; 72 h p.i.): 3.2±0.3 %I.A./g; Uptake in Adrenal ([2]; 96 h p.i.): 0.5±0.01 %I.A./g; Uptake in Blood ([2]; 96 h p.i.): 0.03±0 %I.A./g; Uptake in Bone ([2]; 96 h p.i.): 0.6±0.1 %I.A./g; Uptake in Gallbladder ([2]; 96 h p.i.): 0.1±0.02 %I.A./g; Uptake in Heart ([2]; 96 h p.i.): 0.2±0.02 %I.A./g; Uptake in Intestine ([2]; 96 h p.i.): 0.1±0.02 %I.A./g; Uptake in Kidney ([2]; 96 h p.i.): 0.4±0.04 %I.A./g; Uptake in Liver ([2]; 96 h p.i.): 1.3±0.1 %I.A./g; Uptake in Lung ([2]; 96 h p.i.): 0.1±0.02 %I.A./g; Uptake in Muscle ([2]; 96 h p.i.): 0.1±0.1 %I.A./g; Uptake in Pancreas ([2]; 96 h p.i.): 0.2±0.02 %I.A./g; Uptake in Salivary glands ([2]; 96 h p.i.): 0.7±0.1 %I.A./g; Uptake in Spleen ([2]; 96 h p.i.): 0.3±0.03 %I.A./g; Uptake in Stomach ([2]; 96 h p.i.): 0.1±0.01 %I.A./g; Uptake in Tumor ([2]; 96 h p.i.): 2.2±0.2 %I.A./g; Uptake in Adrenal [2, 3]: 0.8±0.5 %I.A./g; Uptake in Blood [2, 3]: 0.03±0.01 %I.A./g; Uptake in Bone [2, 3]: 0.7±0.1 %I.A./g; Uptake in Gallbladder [2, 3]: 0.2±0.2 %I.A./g; Uptake in Heart [2, 3]: 0.2±0.04 %I.A./g; Uptake in Intestine [2, 3]: 0.1±0.02 %I.A./g; Uptake in Kidney [2, 3]: 0.5±0.1 %I.A./g; Uptake in Liver [2, 3]: 1.2±0.5 %I.A./g; Uptake in Lung [2, 3]: 0.1±0.04 %I.A./g; Uptake in Muscle [2, 3]: 0.2±0.04 %I.A./g; Uptake in Pancreas [2, 3]: 0.2±0.2 %I.A./g; Uptake in Salivary glands [2, 3]: 0.6±0.2 %I.A./g; Uptake in Spleen [2, 3]: 0.3±0.1 %I.A./g; Uptake in Stomach [2, 3]: 0.09±0.02 %I.A./g; Uptake in Tumor [2, 3]: 2.9±1.8 %I.A./g; tumor uptake ([2]; at 1 h p.i. as printed): ~ 15 %I.A./g; drop of tumor uptake (washed-out) ([2]; at 24 h vs 4 h p.i.): ~ 50%
